Assay results as given in patent publication EP1200114B1, “PPAR DELTA INHIBITORS FOR THE TREATMENT OF CARDIOVASCULAR DISEASES” (priority 1999, dated 2001).
Entries after “also recorded” stand apart in the source; their conditions may differ.

Columns and labels:
[1] = test system: parental THP-1 cells; test: PMA-induced differentiation (adherence to culture dish) of parental THP-1 cells; assay type: cell-based, human; details: incubated with PMA and inhibitor
Experimental: (§1) Cells were treated overnight with 5ng/ml PMA and scored for differentiation (adherence to culture dish) and viability (trypan blue exclusion).
(§2) Parental and PPARδ anti-sense cells were incubated with PMA and an inhibitor of PKC activity (Bis) and two inhibitors of PLA2 activity (OBAA and mepacrine). These inhibitors were included at concentrations used in previous studies for specific inhibition.

[2] = test system: PPARδ anti-sense cell line; test: Viability (trypan blue exclusion) of PPARδ anti-sense cells treated with PMA; assay type: cell-based, human; details: incubated with PMA and inhibitor
Experimental: as §1, §2

[3] = test system: parental THP-1 cells
Experimental: as §1, §2

[4] = test system: THP-1 cells; test: THP-1 foam cell model (PMA-activated cells, Oil Red O lipid staining); assay type: cell-based, human; details: for lipid accumulation: PMA-treated THP-1 cells, Oil Red O staining; for foam cell formation: adherent PMA-treated THP-1 cells
Excerpt: Treatment was continued for 3 days and the cells fixed in 0.66M paraformaldehyde, stained with a saturating solution of Oil Red O and then counterstained with haematoxylin.

[5] = test system: ApoE; test: ApoE mRNA by TAQMAN in THP-1 cells; assay type: cell-based, human; details: parental THP-1 cells treated with PMA and linoleic acid
Experimental: Total RNA was prepared from parental THP-1 cells treated with PMA (THP-1), or PMA and linoleic acid (THP-1+FA), and untreated PPARδ over-expressing cell line (DELTA). cDNA was prepared from these RNA samples and the cDNA was analysed for ApoE sequences using TAQMAN procedures. The result shown is relative expression normalised for β-actin expression and the error bars represent the standard deviation in duplicate samples.

[6] = test system: LNCaP; test: Prostate cell growth, colorimetric cell number assay; assay type: cell-based; details: low concentrations, 7 days
Experimental: (§3) Cell lines were plated at 2,500 cells per well in a 24-well plate and cultured in RPMI containing 5% dextran-coated charcoal-treated FCS. Increasing concentrations of Compound F or LG 100268 were included in the culture medium and the cultures were maintained for 7 days with changes of drugs and medium every 48 hours.

[7] = test system: PNT1A; test: as above; assay type: cell-based; details: low concentrations, 7 days
Experimental: as §3

SMILES | differentiation of parental THP-1 cells [1] | PMA-induced "death" of the PPARδ anti-sense cell line [2] | lipid accumulation [4] | foam cell formation [4] | also measured
CCN(CC)CCCC(C)Nc1c2ccc(Cl)cc2nc2ccc(OC)cc12 (centres unmarked) [Mepacrine, 6-chloro-9-[(4-diethylamino)-1-methylbutyl]amino-2-methoxy-acridine] | prevented | did not block | – | – | toxicity in the parental cells [3]: sign of toxicity
CN(C)CCCn1cc(C2=C(c3c[nH]c4ccccc34)C(=O)NC2=O)c2ccccc21 [Bis, bisindoylmaleamide I] | prevented | did not block | – | – | –
CCCCCCCCCCCCCCCCCCc1ccc(C(=O)C=CC(=O)O)cc1 [OBAA, 3-(4-octadecyl)benzoylacrylic acid] | prevented | did not block | – | – | –
CCCCC/C=C\C/C=C\CCCCCCCC(=O)O [linoleic acid] | – | – | Increased lipid accumulation; also recorded: leads to the accumulation of lipid droplets in the cytoplasm | – | apoE mRNA levels [5]: reduced
Cc1cccc(Nc2cc(Cl)nc(SCC(=O)O)n2)c1C [Wy 14,643] | – | – | – | no effect | –
Cc1cc2c(cc1C1(c3ccc(C(=O)O)cn3)CC1)C(C)(C)CCC2(C)C [LG 100268] | – | – | Increased lipid accumulation | promoted foam cell formation in co-operation with fatty acids | growth stimulated [6]: also seen; growth stimulated [7]: also seen
